PubChem BioAssay AID1963980 (Molecular Pharmacology Branch, DTP, NCI, 2024)

Test system: 475296-252-R-J1-PDC spheroid viability
Experiment: Anticancer human tumor 475296-252-R-J1-PDC patient-derived rectal carcinoma cell line growth inhibition [PI3K]
Details: spheroids with HUVEC and MSC; for IC50: curve of first compound; for viability, T/C: stronger effect = lower value
Procedure, shortened: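 Combination activity was assessed by viability in multicellular tumor spheroids carrying HUVEC and MSC components. Agents were tested with PI3K inhibitors from a Cmax-based top dose (or 10 microM) downward in half-log increments.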

[1] = second compound 0.00316 µM, first compound 0.00949 µM
[2] = second compound 0.00316 µM, first compound 0.03 µM
[3] = second compound 0.00316 µM, first compound 0.0949 µM
[4] = second compound 0.00316 µM, first compound 0.3 µM
[5] = second compound 0.00316 µM, first compound 0.949 µM
[6] = second compound 0.00316 µM, first compound 3 µM
[7] = second compound 0.01 µM, first compound 0.00949 µM
[8] = second compound 0.01 µM, first compound 0.03 µM
[9] = second compound 0.01 µM, first compound 0.0949 µM
[10] = second compound 0.01 µM, first compound 0.3 µM
[11] = second compound 0.01 µM, first compound 0.949 µM
[12] = second compound 0.01 µM, first compound 3 µM
[13] = second compound 0.0316 µM, first compound 0.00949 µM
[14] = second compound 0.0316 µM, first compound 0.03 µM
[15] = second compound 0.0316 µM, first compound 0.0949 µM
[16] = second compound 0.0316 µM, first compound 0.3 µM
[17] = second compound 0.0316 µM, first compound 0.949 µM
[18] = second compound 0.0316 µM, first compound 3 µM
[19] = second compound 0.1 µM, first compound 0.00949 µM
[20] = second compound 0.1 µM, first compound 0.03 µM
[21] = second compound 0.1 µM, first compound 0.0949 µM
[22] = second compound 0.1 µM, first compound 0.3 µM
[23] = second compound 0.1 µM, first compound 0.949 µM
[24] = second compound 0.1 µM, first compound 3 µM
[25] = second compound 0.316 µM, first compound 0.00949 µM
[26] = second compound 0.316 µM, first compound 0.03 µM
[27] = second compound 0.316 µM, first compound 0.0949 µM
[28] = second compound 0.316 µM, first compound 0.3 µM
[29] = second compound 0.316 µM, first compound 0.949 µM
[30] = second compound 0.316 µM, first compound 3 µM
[31] = second compound 1 µM, first compound 0.00949 µM
[32] = second compound 1 µM, first compound 0.03 µM
[33] = second compound 1 µM, first compound 0.0949 µM
[34] = second compound 1 µM, first compound 0.3 µM
[35] = second compound 1 µM, first compound 0.949 µM
[36] = second compound 1 µM, first compound 3 µM
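Also: spheroids exposed to agents for seven days before readout.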

Cn1cnc2c(F)c(Nc3ccc(Br)cc3Cl)c(C(=O)NOCCO)cc21 + COc1c(OCCCN2CCOCC2)ccc2c3n(c(=NC(=O)c4cnc(N)nc4)nc12)CCN3
IC50 (second compound 0.00316 µM): 2050 nM | IC50 (second compound 0.01 µM): 469 nM | IC50 (second compound 0.0316 µM): 162 nM | IC50 (second compound 0.1 µM): 94.2 nM | IC50 (second compound 0.316 µM): 27.1 nM | IC50 (second compound 1 µM): < 9.49 nM | viability, T/C [1]: 88% | viability, T/C [2]: 75.5% | viability, T/C [3]: 73.4% | viability, T/C [4]: 60.6% | viability, T/C [5]: 62.5% | viability, T/C [6]: 44.2% | viability, T/C [7]: 90.6% | viability, T/C [8]: 90% | viability, T/C [9]: 63% | viability, T/C [10]: 53.3% | viability, T/C [11]: 53.8% | viability, T/C [12]: 36.9% | viability, T/C [13]: 84.1% | viability, T/C [14]: 63.3% | viability, T/C [15]: 56.3% | viability, T/C [16]: 42.6% | viability, T/C [17]: 37% | viability, T/C [18]: 18.8% | viability, T/C [19]: 65% | viability, T/C [20]: 67.6% | viability, T/C [21]: 48.7% | viability, T/C [22]: 25.6% | viability, T/C [23]: 16.5% | viability, T/C [24]: 6.68% | viability, T/C [25]: 55.9% | viability, T/C [26]: 49.8% | viability, T/C [27]: 29.4% | viability, T/C [28]: 10.7% | viability, T/C [29]: 5.48% | viability, T/C [30]: 2.56% | viability, T/C [31]: 47.1% | viability, T/C [32]: 41.5% | viability, T/C [33]: 22.2% | viability, T/C [34]: 9.1% | viability, T/C [35]: 5.23% | viability, T/C [36]: 3.35%

Cn1cnc2c(F)c(Nc3ccc(Br)cc3Cl)c(C(=O)NOCCO)cc21 + CC(Nc1ccc2c(c1)OCCn1cc(N3C(=O)OCC3C(F)F)nc1-2)C(N)=O
IC50 (second compound 0.00316 µM): > 3000 nM | IC50 (second compound 0.01 µM): > 3000 nM | IC50 (second compound 0.0316 µM): > 3000 nM | IC50 (second compound 0.1 µM): 1210 nM | IC50 (second compound 0.316 µM): 415 nM | IC50 (second compound 1 µM): 142 nM | viability, T/C [1]: 96.4% | viability, T/C [2]: 93.1% | viability, T/C [3]: 89% | viability, T/C [4]: 74.8% | viability, T/C [5]: 74.8% | viability, T/C [6]: 60.8% | viability, T/C [7]: 104% | viability, T/C [8]: 90.9% | viability, T/C [9]: 90.4% | viability, T/C [10]: 65.2% | viability, T/C [11]: 72.8% | viability, T/C [12]: 61.4% | viability, T/C [13]: 95.4% | viability, T/C [14]: 96% | viability, T/C [15]: 84.8% | viability, T/C [16]: 77.3% | viability, T/C [17]: 67.8% | viability, T/C [18]: 52.3% | viability, T/C [19]: 78.8% | viability, T/C [20]: 82.9% | viability, T/C [21]: 71.5% | viability, T/C [22]: 65% | viability, T/C [23]: 53% | viability, T/C [24]: 40.4% | viability, T/C [25]: 76.5% | viability, T/C [26]: 89.5% | viability, T/C [27]: 66% | viability, T/C [28]: 54.8% | viability, T/C [29]: 38.7% | viability, T/C [30]: 23.6% | viability, T/C [31]: 84.5% | viability, T/C [32]: 70.2% | viability, T/C [33]: 57% | viability, T/C [34]: 38.4% | viability, T/C [35]: 25.4% | viability, T/C [36]: 13.5%
